Results taken from patent US20170020838A1, “TREATMENT FOR RESPIRATORY DISEASE” (MUCOKINETICA LIMITED, priority 2014, published 2017).

Columns and labels:
[1] = molecular target: T1, Amiloride-sensitive sodium channels (ENaC) (Sus scrofa, UniProt A0A480QJ99+F1RPF1+I3LGX7); assay: Amiloride-sensitive ENaC-dependent tracheal PD, ex vivo pig trachea; conditions: for AUC of amiloride-sensitive ENaC-dependent tracheal PD responses, analysis of variance: AUC normalised to average of first four peaks, Rx 3.10^−5M alone; for AUC of amiloride-sensitive ENaC-dependent tracheal PD responses, analysis of variance / baseline tracheal PD during perfusion of the agent / responses to 5 min amiloride perfusion during perfusion of the agent: +50 mM-NaCl, combinations with 10^−5 M Rx; for AUC of amiloride-sensitive ENaC-dependent tracheal PD responses, analysis of variance / responses to 5 min amiloride perfusion during perfusion of the agent: 100 mosM-mannitol; for baseline tracheal PD during perfusion of the agent / responses to 5 min amiloride perfusion during perfusion of the agent: perfused in BSS: Rx 3.10^−5M alone, 50 mM sodium gluconate, 0.1 mM-UTP
T1 construct: placed inside the trachea in contact with the tracheal epithelium; from tissue; host or cells: ex vivo pig trachea (tracheal epithelium)
T1 sequence (A0A480QJ99 1-650): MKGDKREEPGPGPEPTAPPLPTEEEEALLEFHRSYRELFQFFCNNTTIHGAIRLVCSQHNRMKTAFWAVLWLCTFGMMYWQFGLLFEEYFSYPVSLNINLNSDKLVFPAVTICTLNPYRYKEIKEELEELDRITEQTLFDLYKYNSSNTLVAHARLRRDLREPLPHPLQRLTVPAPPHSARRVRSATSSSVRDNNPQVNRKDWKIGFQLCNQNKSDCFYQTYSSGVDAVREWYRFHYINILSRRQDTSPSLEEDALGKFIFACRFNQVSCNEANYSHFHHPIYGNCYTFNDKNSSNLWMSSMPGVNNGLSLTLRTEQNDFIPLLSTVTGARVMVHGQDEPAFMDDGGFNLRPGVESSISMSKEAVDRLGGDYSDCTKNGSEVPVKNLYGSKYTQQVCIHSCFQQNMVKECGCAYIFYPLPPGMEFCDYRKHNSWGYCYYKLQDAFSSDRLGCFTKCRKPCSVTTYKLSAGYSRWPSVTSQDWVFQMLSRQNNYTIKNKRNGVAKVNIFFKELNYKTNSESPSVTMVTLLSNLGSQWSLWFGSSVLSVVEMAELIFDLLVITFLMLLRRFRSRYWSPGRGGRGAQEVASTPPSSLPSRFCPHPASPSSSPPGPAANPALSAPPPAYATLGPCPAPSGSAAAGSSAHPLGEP
T1 sequence (I3LGX7 1-644): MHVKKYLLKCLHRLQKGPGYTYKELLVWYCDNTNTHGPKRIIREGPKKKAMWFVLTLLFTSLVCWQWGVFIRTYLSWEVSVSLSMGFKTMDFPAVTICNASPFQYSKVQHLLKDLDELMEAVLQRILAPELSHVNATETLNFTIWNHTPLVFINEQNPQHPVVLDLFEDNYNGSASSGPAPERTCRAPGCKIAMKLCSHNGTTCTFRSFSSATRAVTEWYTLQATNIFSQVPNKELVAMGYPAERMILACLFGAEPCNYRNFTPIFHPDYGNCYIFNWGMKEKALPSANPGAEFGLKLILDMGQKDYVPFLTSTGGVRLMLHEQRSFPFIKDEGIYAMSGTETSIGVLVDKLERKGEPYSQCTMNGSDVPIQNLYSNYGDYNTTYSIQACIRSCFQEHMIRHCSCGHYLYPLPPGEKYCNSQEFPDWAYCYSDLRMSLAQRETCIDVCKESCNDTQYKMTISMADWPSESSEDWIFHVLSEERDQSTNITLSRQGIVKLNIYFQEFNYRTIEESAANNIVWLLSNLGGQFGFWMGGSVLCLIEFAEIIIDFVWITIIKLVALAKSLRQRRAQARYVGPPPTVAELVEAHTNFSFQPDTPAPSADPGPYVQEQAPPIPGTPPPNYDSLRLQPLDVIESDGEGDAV
T1 sequence (F1RPF1 1-652): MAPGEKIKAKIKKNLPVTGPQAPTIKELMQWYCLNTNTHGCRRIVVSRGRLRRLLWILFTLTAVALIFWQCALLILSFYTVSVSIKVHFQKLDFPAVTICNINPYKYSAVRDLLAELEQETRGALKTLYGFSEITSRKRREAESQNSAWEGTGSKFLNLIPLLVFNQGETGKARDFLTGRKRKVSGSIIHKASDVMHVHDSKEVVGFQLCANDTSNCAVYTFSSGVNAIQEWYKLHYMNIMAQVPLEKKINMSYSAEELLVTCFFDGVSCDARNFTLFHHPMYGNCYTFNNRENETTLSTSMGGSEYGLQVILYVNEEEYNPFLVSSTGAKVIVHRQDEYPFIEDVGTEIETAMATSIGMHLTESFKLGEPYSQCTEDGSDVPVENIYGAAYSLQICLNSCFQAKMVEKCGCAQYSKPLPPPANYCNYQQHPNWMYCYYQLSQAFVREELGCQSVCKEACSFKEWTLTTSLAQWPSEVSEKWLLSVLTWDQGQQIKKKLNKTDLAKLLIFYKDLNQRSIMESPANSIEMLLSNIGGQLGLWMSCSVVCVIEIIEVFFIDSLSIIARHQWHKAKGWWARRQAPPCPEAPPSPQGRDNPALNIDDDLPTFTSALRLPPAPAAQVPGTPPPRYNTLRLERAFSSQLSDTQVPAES
Protocol: (§1) FIG. 1 A description of the equipment used to measure electrical potential difference (PD) across the pig trachea ex vivo (FIG. 1A). Pig tracheas placed on a sloping radiator heated at 37° C. A reference electrode consisting of silicone tubing filled with Signa electrode cream was attached to the outer surface of the trachea. A double lumen recording electrode (FIG. 1B) was placed inside the trachea in contact with the tracheal epithelium. The inner tubing of the recording electrode was used to perfuse onto the surface of the trachea buffer solutions and buffer solutions containing drugs and agents. The outer part of the recording electrode was also filled with Signa electrode cream. The ends of the electrodes not in contact with the trachea were placed in Ringer buffer solution. Electrical contact to calomel half-cells in 3M-KCl solution was achieved by silicone tubing bridges filled with Signa electrode cream. The calomel half-cells were connected to a high impedance digital electrometer (Agilent U1252A). Digital PD values were recorded continuously every 1 second for the duration each study and were filed onto a PC.
as §1, with “Pig” for “FIG. 1 A description of the equipment used to measure electrical potential difference (PD) across the pig trachea ex vivo (FIG. 1A). Pig”, “were obtained from” for “placed on”, “local abattoir or Veterinary University. The lumen of each trachea was cleaned by gentle irrigation with BSS.” for “sloping radiator heated at 37° C.”, “trachea according to the diagram in FIG. 1A. Pig tracheas were placed on a sloping radiator heated at 37° C.” for “trachea.”, “duration of” for “duration”
During each study the amiloride-sensitive, ENaC-dependent component of tracheal PD was determined periodically by perfusion (at 1 ml/min) of buffer solution containing 3×10^−6 M amiloride onto the epithelial surface of the trachea for 5 min, followed by washout for 10 minutes with buffer solution without amiloride. Each response to amiloride was quantified by measuring the area under the curve (AUC) response (mV.min) to amiloride perfusion and washout.

ENaC = conditions: human airway epithelial cells; Rasgado et al. 2009 & 2013; cited from earlier work

SMILES	AUC of amiloride-sensitive ENaC-dependent tracheal PD responses, analysis of variance [1]	down-regulation of amiloride-sensitive ENaC-dependent tracheal PD responses, dose series ([1]; doses 3.10^−8 M, 10^−7 M, 3.10^−7 M, 10^−6 M, 3.10^−6 M, and 10^−5 M, all doses)	baseline tracheal PD during perfusion of the agent [1]	responses to 5 min amiloride perfusion during perfusion of the agent [1]	time for tracheal PD to reach plateau depolarisation following initiation of amiloride perfusion ([1]; 3×10^−6 M amiloride perfused 5 min in BSS at 1 ml/min, mean of 23 tracheas)	time for tracheal PD to return to baseline after initiation of washout ([1]; after 5 min perfusion of amiloride, washout with BSS)	responses to 5 min amiloride perfusion on final perfusion with BSS without the agent ([1]; washout 60 min with BSS)	effect of hyperosmotic concentrations on ENaC activity (ENaC)
N=C(N)Nc1ccc(C(=O)Oc2ccc3cc(C(=N)N)ccc3c2)cc1 [6-amidino-2-napthyl 4-guanidinobenzoate]	significant reduction (p<0.0001)	Significant down-regulation	depolarise	decrease				
O=C([O-])[C@H](O)[C@@H](O)[C@H](O)[C@H](O)CO.[Na+] [hyperosmotic sodium gluconate, sodium gluconate]			partially depolarise	decrease				

Second part, led by results:

AUC of amiloride-sensitive ENaC-dependent tracheal PD responses, analysis of variance [1]	down-regulation of amiloride-sensitive ENaC-dependent tracheal PD responses, dose series ([1]; doses 3.10^−8 M, 10^−7 M, 3.10^−7 M, 10^−6 M, 3.10^−6 M, and 10^−5 M, all doses)	baseline tracheal PD during perfusion of the agent [1]	responses to 5 min amiloride perfusion during perfusion of the agent [1]	time for tracheal PD to reach plateau depolarisation following initiation of amiloride perfusion ([1]; 3×10^−6 M amiloride perfused 5 min in BSS at 1 ml/min, mean of 23 tracheas)	time for tracheal PD to return to baseline after initiation of washout ([1]; after 5 min perfusion of amiloride, washout with BSS)	responses to 5 min amiloride perfusion on final perfusion with BSS without the agent ([1]; washout 60 min with BSS)	SMILES	effect of hyperosmotic concentrations on ENaC activity (ENaC)
		partially depolarise	decrease				O=c1ccn([C@@H]2O[C@H](COP(=O)(O)OP(=O)(O)OP(=O)(O)O)[C@@H](O)[C@H]2O)c(=O)[nH]1 [UTP, uridine 5′-triphosphate]	
				about 2 min	approximately 5 min		N=C(N)NC(=O)c1nc(Cl)c(N)nc1N [amiloride]	
significantly reduced			decrease			recover	OC[C@@H](O)[C@@H](O)[C@H](O)[C@H](O)CO [hyperosmotic mannitol, mannitol]	reduced ENaC activity
